Source: BigSolDB 2.1

Cn1c([N+](=O)[O-])cnc1N1CCN(S(C)(=O)=O)C1=O
solubility (mole fraction)
Details	293.2 K	298.2 K	303.2 K	308.2 K	313.2 K
in 1,4-butanediol	0.000939	0.00132	0.00176	0.0024	0.00315
in 1,4-dioxane	0.00814	0.0106	0.0127	0.0158	0.0189
in DMAc	0.0363	0.0481	0.0617	0.0765	0.0963
in DMF	0.0406	0.0542	0.0683	0.083	0.103
in DMSO	0.057	0.0702	0.085	0.0987	0.114
in NMP	0.0796	0.116	0.181	0.262	0.366
in ethanol	0.000378	0.00048	0.000582	0.000726	0.000851
in ethylene glycol	0.000879	0.00149	0.00228	0.00358	0.00558
in formamide	0.0476	0.0591	0.0771	0.0938	0.109
in glycerin	0.000743	0.000861	0.000984	0.00114	0.00128
in isopropanol	0.000315	0.000368	0.000447	0.000527	0.000659
in methanol	0.000481	0.000539	0.000624	0.000739	0.000871
in n-propanol	0.000356	0.000436	0.000541	0.000673	0.000832
in propylene glycol	0.00136	0.00232	0.00347	0.00538	0.00836
in water	2.86e-06	3.21e-06	3.66e-06	4.24e-06	5.06e-06

Details	solubility (mole fraction)
in PEG-200, 293.2 K	0.00829
in PEG-200, 298.2 K	0.011
in PEG-200, 303.2 K	0.0153
in PEG-200, 308.2 K	0.0205
in PEG-200, 313.2 K	0.0271
in PEG-400, 293.2 K	0.0123
in PEG-400, 298.2 K	0.0176
in PEG-400, 303.2 K	0.0247
in PEG-400, 308.2 K	0.0343
in PEG-400, 313.2 K	0.0462
in PEG-600, 293.2 K	0.015
in PEG-600, 298.2 K	0.0218
in PEG-600, 303.2 K	0.0302
in PEG-600, 308.2 K	0.0429
in PEG-600, 313.2 K	0.058
